# Measurements reported in patent US20020133832A1, “Model systems for neuordegenerative and cardiovascular disorders” (priority 2000, published 2002).
# “Also recorded” adds a separate entry of the source.
# Key:
# Type in all cases: in vivo, mouse
# S1+/− and T1+/− mice = assay: Rescue of reduced rearing behavior (rearings/min) in the open field; settings: terazosin target dose 0.05 mg/kg body weight/day via drinking water, four weeks, L-DOPA as Sinemet
# Excerpt: FIG. 6. An Active Open Field Activity System (Harvard Apparatus, Holliston, Mass.) was used to monitor total activity, distance traveled/min and number of rearings/min in age matched NT (▴), W2+/−(▪), S1+/−(●) and T1+/−(▾) and T2+/−(♦) mice. The open field for these experiments was a 16 inch by 16 inch enclosure with infrared beams of light aimed to form grids near the floor and 3 inches above the floor of the enclosure. (A) Total activity, or the total number of beam breaks each minute, was determined in two month old mice for a total time of 15 min. (B) A computer algorithm was used to calculate the distance traveled/min during horizontal ambulation by mice of varying age. (C) The number of rearings/minute was determined by electronically tallying the number of times mice of varying age reared onto their hindlimbs, facilitating a greater than 1 sec beam break in the upper grid (3 inches above the floor of the enclosure). (D) Snapshot of an 11 month old S1+/− mouse showing elongation of the torso caused by sprawling and dragging of the hindlimbs. (E) The ability of terazosin and L-DOPA to rescue the reduced number of rearings/min seen in eighteen month old S1+/− and T1+/− mice was tested by administering a target dose of 0.05 mg terazosin/kg body weight/day via the drinking water. After a four week pretreatment with the drug, the number of rearings/min was determined. All error bars in the Figurere present SEM (n>3) and significance in D was determined using analysis of variance with a two-tailed Student's t test (p<0.05).
# Receptor overactivity was inhibited in S1+/− and T1+/− mice via treatment with the α1BAR-specific antagonist terazosin. Animals were treated with the drug at a target dose of 0.05 mg/Kg of body weight/day via the drinking water. […] (FIG. 6E).
# T2+/− mice [1] = assay: Percent seizure activity induced by open field stress; settings: T2 mice at 12 months of age, 0.05 mg/Kg body weight/day via drinking water, four weeks
# Protocol: (§1) FIG. 7. (A) Sequence of seizure behaviors in a 12 month old T2+/− mouse. 1; behavioral arrest. 2; loss of balance and whole body jerking. 3; forelimb flexion. 4; recovery. (B) Comparison of percent seizure activity induced by open field stress in various lines of mice at 12 months of age. […] Percent seizure activity was then calculated by dividing the number of seizure-positive mice by the total number of mice tested. The total number of mice tested for each case is shown above the respective column in the graph. The ability of terazosin to rescue T2+/− mice from the seizure phenotype was tested by administering a target dose of 0.05 mg/kg body weight/day via the drinking water. After a four week pretreatment with the drug, percent seizure activity was determined. (C) Identical experiment to that described in B, except percent seizure activity was determined in lines of mice at seven months of age that were exposed to intraperitoneal injection (IPI) stress. IPI stress was administered to the mice by intraperitoneal injection of […] of sterile 0.9% NaCl.
# The seizure event seen in W2+/−, S 1+/−, T1+/− and T2+/− mice at twelve months of age was evoked by exposure to the open field (i.e. handling-invoked stress) and was characterized by behavioral arrest, facial twitching, loss of balance, forelimb automatism, whole body jerking and hypersalivation. […]
# T2+/− mice [2] = assay: Percent seizure activity induced by intraperitoneal injection (IPI) stress; settings: T2 mice at 7 months of age, 0.05 mg/Kg body weight/day via drinking water, 4 weeks, 0.05 mg/kg/day
# Protocol: as §1
# Seizures seen in response to this intraperitoneal injection stress (IPI stress) resembled the open field stress-induced event in terms of severity, characteristics and duration. […]
SMILES,rearing behavior (number of rearings/min) (S1+/− and T1+/− mice; eighteen month old S1+/− mice),rearing behavior (number of rearings/min) (S1+/− and T1+/− mice; eighteen month old T1+/− mice),percent seizure activity (T2+/− mice [1]),percent seizure activity (T2+/− mice [2])
N[C@@H](Cc1ccc(O)c(O)c1)C(=O)O [L-DOPA],did not improve the locomotor activity,dramatically reversed the rearing deficit,,
COc1cc2nc(N3CCN(C(=O)C4CCCO4)CC3)nc(N)c2cc1OC (stereo not drawn) [terazosin],partial rescue of the rearing behavior,partial rescue of the rearing behavior,"partially reversible i.e., fewer events",reduced the number of younger T2+/− mice displaying IPI-induced seizures; also recorded: partially reversed the phenotype
